Source: ChEMBL document CHEMBL5033993, “Design, Synthesis, and Evaluation of o-(Biphenyl-3-ylmethoxy)nitrophenyl Derivatives as PD-1/PD-L1 Inhibitors with Potent Anticancer Efficacy In Vivo” (J Med Chem, 2021)
pIC50: −log10 of the molar value. Active and inactive are the calls of the source. The rule behind the calls is not given here.

Target: Programmed cell death protein 1/Programmed cell death 1 ligand 1 (Homo sapiens, UniProt Q15116+Q9NZQ7)
Assay: Inhibition of human PD-1/PD-L1 interaction assessed as disruption of PD-1/PD-L1 complex incubated for 2 hrs by Tag-1 Eu3+ and anti-Tag2-XL665 based HTRF assay
Type: protein-complex assay
Settings: not given

Chain of Programmed cell death protein 1/Programmed cell death 1 ligand 1 (Q15116 whole entry): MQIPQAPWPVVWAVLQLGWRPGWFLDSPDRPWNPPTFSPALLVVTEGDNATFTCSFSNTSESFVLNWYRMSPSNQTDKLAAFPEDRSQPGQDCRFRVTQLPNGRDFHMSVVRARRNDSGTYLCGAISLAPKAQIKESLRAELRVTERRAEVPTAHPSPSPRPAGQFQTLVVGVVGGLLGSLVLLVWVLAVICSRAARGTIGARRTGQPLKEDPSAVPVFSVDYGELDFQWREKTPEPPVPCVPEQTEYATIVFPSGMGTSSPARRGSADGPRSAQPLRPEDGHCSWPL
Chain of Programmed cell death protein 1/Programmed cell death 1 ligand 1 (Q9NZQ7 whole entry): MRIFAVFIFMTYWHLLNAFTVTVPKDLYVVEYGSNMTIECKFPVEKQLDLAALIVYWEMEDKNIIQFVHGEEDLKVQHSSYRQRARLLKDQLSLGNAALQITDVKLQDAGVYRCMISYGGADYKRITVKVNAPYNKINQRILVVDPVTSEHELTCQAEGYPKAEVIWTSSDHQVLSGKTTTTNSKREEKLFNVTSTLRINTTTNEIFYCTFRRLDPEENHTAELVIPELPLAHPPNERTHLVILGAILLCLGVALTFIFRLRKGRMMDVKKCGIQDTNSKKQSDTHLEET

Compared with Cc1c(COc2ccc(CN3CCC[C@H]3C(=O)O)cc2[N+](=O)[O-])cccc1-c1ccccc1, Cc1c(COc2ccc(CN3CCCC[C@H]3C(=O)O)cc2[N+](=O)[O-])cccc1-c1ccccc1 is 0.72 log units higher in pIC50: 7.34 for the first, 8.06 for the second. The second is the more potent here.

First: Cc1c(COc2cc(OCc3cccc(C#N)c3)c(CNC(CO)CO)cc2[N+](=O)[O-])cccc1-c1ccccc1
Second: Cc1c(COc2cc(OCc3cccc(C#N)c3)c(CNCCO)cc2[N+](=O)[O-])cccc1-c1ccccc1
The pIC50 of the first is 0.33 log units lower: 8.11 for the first, 8.44 for the second. The second is the more potent here.

Cc1c(COc2cc(OCc3cccc(C#N)c3)c(CN[C@@H](CO)C(=O)O)cc2[N+](=O)[O-])cccc1-c1ccccc1 and Cc1c(COc2cc(OCc3ccnc(C#N)c3)c(CN[C@@H](CO)C(=O)O)cc2[N+](=O)[O-])cccc1-c1ccccc1 are within 0.2 log units of each other in pIC50: 7.89 for the first, 8.03 for the second.

CC(=O)NCCNCc1ccc(OCc2cccc(-c3ccccc3)c2C)c([N+](=O)[O-])c1 and Cc1c(COc2ccc(CNCCO)cc2[N+](=O)[O-])cccc1-c1ccccc1 are within 0.2 log units of each other in pIC50: 7.88 for the first, 7.93 for the second.

Cc1c(COc2ccc(CN[C@@H](CO)C(=O)O)cc2[N+](=O)[O-])cccc1-c1ccccc1 and CSCC[C@H](NCc1ccc(OCc2cccc(-c3ccccc3)c2C)c([N+](=O)[O-])c1)C(=O)O are within 0.2 log units of each other in pIC50: 7.56 for the first, 7.75 for the second.

Cc1c(COc2cc(OCc3cccnc3)c(CN[C@@H](CO)C(=O)O)cc2[N+](=O)[O-])cccc1-c1ccccc1 and Cc1c(COc2cc(OCc3cccnc3)c(CN[C@H](C(=O)O)[C@@H](C)O)cc2[N+](=O)[O-])cccc1-c1ccccc1 are within 0.2 log units of each other in pIC50: 7.75 for the first, 7.81 for the second.

Going from Cc1c(COc2ccc(CN3CCC[C@H]3C(=O)NC(C)(CO)CO)cc2[N+](=O)[O-])cccc1-c1ccccc1 to CCC(CO)(CO)NC(=O)[C@@H]1CCCN1Cc1ccc(OCc2cccc(-c3ccccc3)c2C)c([N+](=O)[O-])c1, the pIC50 falls from 7.31 to 7.08 (0.23 log units). The first is the more potent here.

Going from Cc1c(COc2ccc(CN(C)CC(=O)O)cc2[N+](=O)[O-])cccc1-c1ccccc1 to Cc1c(COc2ccc(CNCCC(=O)O)cc2[N+](=O)[O-])cccc1-c1ccccc1, the pIC50 falls from 7.68 to 7.40 (0.28 log units). The first is the more potent here.

Cc1c(COc2ccc(CN3CCC[C@H]3C(=O)N[C@@H](C)CO)cc2[N+](=O)[O-])cccc1-c1ccccc1 and Cc1c(COc2ccc(CN3CCC[C@H]3C(=O)N[C@@H](CO)C(=O)O)cc2[N+](=O)[O-])cccc1-c1ccccc1 are within 0.2 log units of each other in pIC50: 7.21 for the first, 7.14 for the second.

Cc1c(COc2ccc(CNCC(C)(C)O)cc2[N+](=O)[O-])cccc1-c1ccccc1 and Cc1c(COc2ccc(CNCCN(C)C)cc2[N+](=O)[O-])cccc1-c1ccccc1 are within 0.2 log units of each other in pIC50: 7.33 for the first, 7.42 for the second.

Compared with Cc1c(COc2ccc(CN[C@@H](CO)C(=O)O)c(OCc3cccc(C#N)c3)c2)cccc1-c1ccccc1, Cc1c(COc2cc(OCc3cccc(C#N)c3)c(CN(C)CC(=O)O)cc2[N+](=O)[O-])cccc1-c1ccccc1 is 0.61 log units higher in pIC50: 7.52 for the first, 8.13 for the second. The second is the more potent here.

Going from Cc1c(COc2cc(OCc3cccc(C#N)c3)c(CN3CCCC[C@H]3C(=O)O)cc2[N+](=O)[O-])cccc1-c1ccccc1 to Cc1c(COc2cc(OCc3cccc(C#N)c3)c(CN3CCC[C@H]3C(=O)O)cc2[N+](=O)[O-])cccc1-c1ccccc1, the pIC50 falls from 8.25 to 7.64 (0.61 log units). The first is the more potent here.

Going from Cc1c(COc2ccc(CN(CCO)CCO)cc2[N+](=O)[O-])cccc1-c1ccccc1 to Cc1c(COc2ccc(CNC(CO)CO)cc2[N+](=O)[O-])cccc1-c1ccccc1, the pIC50 rises from 7.67 to 8.05 (0.38 log units). The second is the more potent here.

Cc1c(COc2cc(OCc3ccnc(C#N)c3)c(CN3CCCC[C@H]3C(=O)O)cc2[N+](=O)[O-])cccc1-c1ccccc1 and Cc1c(COc2cc(OCc3cccnc3)c(CN3CCCC[C@H]3C(=O)O)cc2[N+](=O)[O-])cccc1-c1ccccc1 are within 0.2 log units of each other in pIC50: 7.99 for the first, 8.06 for the second.

Cc1c(COc2ccc(CNCc3ccoc3)cc2[N+](=O)[O-])cccc1-c1ccccc1 and Cc1c(COc2ccc(CNC(C)(CO)CO)cc2[N+](=O)[O-])cccc1-c1ccccc1 are within 0.2 log units of each other in pIC50: 7.06 for the first, 7.04 for the second.

Cc1c(COc2ccc(CN3CCCC[C@H]3C(=O)N3CCC[C@H]3C(=O)O)cc2[N+](=O)[O-])cccc1-c1ccccc1 and Cc1c(COc2ccc(CN3CCCC[C@H]3C(=O)N[C@@H](C)C(=O)O)cc2[N+](=O)[O-])cccc1-c1ccccc1 are within 0.2 log units of each other in pIC50: 7.83 for the first, 7.90 for the second.

Compared with C[C@@H](O)[C@H](NCc1ccc(OCc2cccc(-c3ccccc3)c2Br)c([N+](=O)[O-])c1)C(=O)O, Cc1c(COc2ccc(CN[C@H](C(=O)O)[C@@H](C)O)cc2[N+](=O)[O-])cccc1-c1ccccc1 is 0.76 log units higher in pIC50: 6.45 for the first, 7.21 for the second. The second is the more potent here.

First: Cc1c(COc2ccc(CN3CCCC[C@H]3C(=O)N[C@@H](CO)C(=O)O)cc2[N+](=O)[O-])cccc1-c1ccccc1
Second: Cc1c(COc2ccc(CN3CCCC[C@H]3C(=O)N[C@H](C(=O)O)[C@@H](C)O)cc2[N+](=O)[O-])cccc1-c1ccccc1
The pIC50 of the first is 0.34 log units higher: 7.91 for the first, 7.57 for the second. The first is the more potent here.

First: Cc1c(COc2cc(OCc3cccc(C#N)c3)c(CN3CCCC[C@H]3C(=O)NCC(C)(C)O)cc2[N+](=O)[O-])cccc1-c1ccccc1
Second: Cc1c(COc2cc(OCc3cccc(C#N)c3)c(CN3CCCC[C@H]3C(=O)N[C@@H](CO)C(=O)O)cc2[N+](=O)[O-])cccc1-c1ccccc1
The pIC50 of the first is 0.22 log units higher: 8.32 for the first, 8.10 for the second. The first is the more potent here.

First: Cc1c(COc2ccc(CN3CCCC[C@H]3C(=O)NCC(C)(C)O)cc2[N+](=O)[O-])cccc1-c1ccccc1
Second: Cc1c(COc2ccc(CN3CCC[C@H]3C(=O)NCC(C)(C)O)cc2[N+](=O)[O-])cccc1-c1ccccc1
The pIC50 of the first is 0.77 log units higher: 7.92 for the first, 7.15 for the second. The first is the more potent here.

Going from Cc1c(COc2ccc(CN3CCC[C@H]3C(=O)N(C)CC(O)CO)cc2[N+](=O)[O-])cccc1-c1ccccc1 (stereo partly specified) to Cc1c(COc2ccc(CN3CCC[C@H]3C(=O)NCCO)cc2[N+](=O)[O-])cccc1-c1ccccc1, the pIC50 falls from 8.00 to 7.25 (0.75 log units). The first is the more potent here.

CC(=O)NCCNCc1cc([N+](=O)[O-])c(OCc2cccc(-c3ccccc3)c2C)cc1OCc1cccc(C#N)c1 and Cc1c(COc2cc(OCc3ccnc(C#N)c3)c(CN[C@H](C(=O)O)[C@@H](C)O)cc2[N+](=O)[O-])cccc1-c1ccccc1 are within 0.2 log units of each other in pIC50: 8.09 for the first, 7.99 for the second.

CC(=O)NCCNC(=O)[C@@H]1CCCN1Cc1ccc(OCc2cccc(-c3ccccc3)c2C)c([N+](=O)[O-])c1 and Cc1c(COc2ccc(CN3CCC[C@H]3C(=O)N[C@H](C(=O)O)[C@@H](C)O)cc2[N+](=O)[O-])cccc1-c1ccccc1 are the same in pIC50: 7.25 for the first, 7.25 for the second.

Compared with Cc1c(COc2ccc(CNCCCNC(CO)CO)cc2[N+](=O)[O-])cccc1-c1ccccc1, Cc1c(COc2cc(OCc3cccc(C#N)c3)c(CN3CCCC[C@H]3C(=O)N3CCC[C@H]3C(=O)O)cc2[N+](=O)[O-])cccc1-c1ccccc1 is 0.83 log units higher in pIC50: 7.54 for the first, 8.37 for the second.

Tested on: not listed separately
Assay: Anti-tumor activity against mouse lewis lung carcinoma cells allografted in C57BL6 mouse assessed as reduction in tumor growth at 5 mg/kg, ig for 21 days relative to control
Type: functional
Settings: po, 504 h, time 21 day, read-out: TGI

Cc1c(COc2ccc(CN[C@@H](CO)C(=O)O)c(OCc3cccc(C#N)c3)c2)cccc1-c1ccccc1 showed an inhibition in vivo at 5 mg/kg of 17.8%.

Tested on: Mus musculus
Assay: Toxicity in C57BL6 mouse allografted with mouse lewis lung carcinoma cells assessed as reduction body weight at 5 mg/kg, ig for 21 days
Type: organism-based
Settings: in vivo, po, 504 h, time 21 day

In the case of Cc1c(COc2ccc(CN[C@@H](CO)C(=O)O)c(OCc3cccc(C#N)c3)c2)cccc1-c1ccccc1, the Activity was “Non-Toxic”.

Tested on: Mus musculus
Assay: Upregulation of IFNgamma protein expression in C57BL6 mouse serum allografted with mouse lewis lung carcinoma cells at 5 mg/kg, ig for 21 days by ELISA
Type: functional, organism-based
Settings: time 21.0 day

In the case of Cc1c(COc2ccc(CN[C@@H](CO)C(=O)O)c(OCc3cccc(C#N)c3)c2)cccc1-c1ccccc1, the Activity was “Active”.
